According to ChEMBL document CHEMBL1147438, “Discovery of novel aspartyl ketone dipeptides as potent and selective caspase-3 inhibitors” (Bioorg Med Chem Lett, 2004):

Legend:
[1] = molecular target: T1, Caspase-7 (Homo sapiens, UniProt P55210); assay: Inhibitory activity against caspase-7
T1 sequence (P55210 whole entry): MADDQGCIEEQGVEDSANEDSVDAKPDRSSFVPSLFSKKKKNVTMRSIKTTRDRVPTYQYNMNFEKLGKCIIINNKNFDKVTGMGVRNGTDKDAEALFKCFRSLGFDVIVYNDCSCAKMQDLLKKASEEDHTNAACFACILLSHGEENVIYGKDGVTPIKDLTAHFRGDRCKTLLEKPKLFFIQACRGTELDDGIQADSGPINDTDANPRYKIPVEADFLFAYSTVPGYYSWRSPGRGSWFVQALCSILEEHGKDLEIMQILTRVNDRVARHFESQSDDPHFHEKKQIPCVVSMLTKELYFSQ

[2] = molecular target: T2, Caspase-3 (Homo sapiens, UniProt P42574); assay: Inhibitory activity against caspase-3
T2 sequence (P42574 whole entry): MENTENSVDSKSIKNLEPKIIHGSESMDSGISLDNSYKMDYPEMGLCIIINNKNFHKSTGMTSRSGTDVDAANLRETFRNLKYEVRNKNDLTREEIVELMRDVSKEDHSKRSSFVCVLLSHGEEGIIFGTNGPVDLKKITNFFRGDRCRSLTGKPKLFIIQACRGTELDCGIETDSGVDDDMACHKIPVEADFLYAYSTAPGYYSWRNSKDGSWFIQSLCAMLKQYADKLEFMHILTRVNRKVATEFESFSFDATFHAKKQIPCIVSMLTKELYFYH

[3] = molecular target: T3, Caspase-1 (Homo sapiens, UniProt P29466); assay: Inhibitory activity against caspase-1
T3 sequence (P29466 whole entry): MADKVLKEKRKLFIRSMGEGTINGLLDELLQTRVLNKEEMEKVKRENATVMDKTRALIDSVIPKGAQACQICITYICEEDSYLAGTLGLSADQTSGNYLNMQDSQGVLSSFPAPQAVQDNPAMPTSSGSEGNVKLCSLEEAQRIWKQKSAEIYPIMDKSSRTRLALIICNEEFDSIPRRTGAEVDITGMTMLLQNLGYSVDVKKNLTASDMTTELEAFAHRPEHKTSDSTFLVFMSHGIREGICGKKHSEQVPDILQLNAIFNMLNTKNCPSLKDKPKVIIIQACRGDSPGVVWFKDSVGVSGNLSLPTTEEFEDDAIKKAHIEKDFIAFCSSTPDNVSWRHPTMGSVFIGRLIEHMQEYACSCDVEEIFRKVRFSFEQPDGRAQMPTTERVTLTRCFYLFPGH

[4] = molecular target: Caspase-8 (Homo sapiens, UniProt Q14790); assay: Inhibitory activity against caspase-8
Caspase-8, sequence (Q14790 217-374 limits assumed): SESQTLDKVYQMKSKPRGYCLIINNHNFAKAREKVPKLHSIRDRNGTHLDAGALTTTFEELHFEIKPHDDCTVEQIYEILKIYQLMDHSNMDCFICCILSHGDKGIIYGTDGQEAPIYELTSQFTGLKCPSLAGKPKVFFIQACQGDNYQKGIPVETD
Caspase-8, sequence (Q14790 385-479 limits assumed): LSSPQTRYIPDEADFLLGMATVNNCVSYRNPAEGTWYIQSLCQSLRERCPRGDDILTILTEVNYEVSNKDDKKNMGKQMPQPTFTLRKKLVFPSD

[5] = system: NT2; assay: Inhibitory activity against NT2 cells; type: functional, cell-based; conditions: Homo sapiens

## COc1ccccc1CC(=O)N[C@H](C(=O)N[C@@H](CC(=O)O)C(=O)CSCc1ccccc1)C(C)C
[1]
  IC50: 2700 nM
[2]
  IC50: 310 nM
[3]
  IC50: 28 µM
[4]
  IC50: 15.5 µM

## COc1ccc(OC)c(CC(=O)N[C@H](C(=O)N[C@@H](CC(=O)O)C(=O)CSCc2ccccc2)C(C)C)c1
[5]
  IC50: 10 µM
[1]
  IC50: 3200 nM
[2]
  IC50: 48 nM
[3]
  IC50: 6 µM
[4]
  IC50: 6.6 µM

## COc1ccc(S(C)(=O)=O)cc1CC(=O)N[C@H](C(=O)N[C@@H](CC(=O)O)C(=O)CSCc1c(F)cccc1Cl)C(C)C
[5]
  IC50: 1 µM
[1]
  IC50: 120 nM
[2]
  IC50: 5 nM
[3]
  IC50: 1.6 µM
[4]
  IC50: 0.49 µM

## CC(C)[C@H](NC(=O)c1cc(Br)cc(Br)c1)C(=O)N[C@@H](CC(=O)O)C(=O)CSCc1ccccc1
[5]
  IC50: 63 µM
[1]
  IC50: 1500 nM
[2]
  IC50: 140 nM
[3]
  IC50: 0.86 µM
[4]
  IC50: 8.7 µM

## COc1ccc(C(C)=O)cc1CC(=O)N[C@H](C(=O)N[C@@H](CC(=O)O)C(=O)CSCc1ccccc1)C(C)C
[5]
  IC50: 2 µM
[1]
  IC50: 130 nM
[2]
  IC50: 10 nM
[3]
  IC50: 5.9 µM
[4]
  IC50: 2.9 µM

## COc1ccc(OC)c(CC(=O)N[C@H](C(=O)N[C@@H](CC(=O)O)C(=O)CSCc2c(F)cccc2Cl)C(C)C)c1
[5]
  IC50: 9 µM
[1]
  IC50: 2500 nM
[2]
  IC50: 73 nM
[3]
  IC50: 5 µM
[4]
  IC50: 2.4 µM

## CCOc1ccc(OCC(=O)O)cc1CC(=O)N[C@H](C(=O)N[C@@H](CC(=O)O)C(=O)CSCc1c(F)cccc1Cl)C(C)C
[5]
  IC50: 5 µM
[1]
  IC50: 360 nM
[2]
  IC50: 5 nM
[3]
  IC50: 3.8 µM
[4]
  IC50: 0.81 µM

## CCOc1ccc(OCC(=O)OC(C)C)cc1CC(=O)N[C@H](C(=O)N[C@@H](CC(=O)O)C(=O)CSCc1c(F)cccc1Cl)C(C)C
[5]
  IC50: 0.3 µM
[1]
  IC50: 2300 nM
[2]
  IC50: 94 nM
[3]
  IC50: 4.2 µM
[4]
  IC50: 6.3 µM

## CC(C)[C@H](NC(=O)c1cc2cc(F)ccc2[nH]1)C(=O)N[C@@H](CC(=O)O)C(=O)CSCc1ccccc1
[5]
  IC50: 55 µM
[1]
  IC50: 1400 nM
[2]
  IC50: 83 nM
[3]
  IC50: 2.6 µM
[4]
  IC50: 3.3 µM

## COc1cccc(CC(=O)N[C@H](C(=O)N[C@@H](CC(=O)O)C(=O)CSCc2ccccc2)C(C)C)c1
[5]
  IC50: 60 µM
[1]
  IC50: 3100 nM
[2]
  IC50: 210 nM
[3]
  IC50: 14 µM
[4]
  IC50: 14 µM

## CC(C)[C@H](NC(=O)[C@H](C)NC(=O)[C@H](CC(=O)O)NC(=O)c1ccccc1)C(=O)N[C@@H](CC(=O)O)C(=O)CCCc1ccccc1
[5]
  IC50: 14 µM
[1]
  IC50: 8.4 nM
[2]
  IC50: 1.8 nM
[3]
  IC50: 1.65 µM
[4]
  IC50: 1.5 µM

## CCOc1ccc(OCC(=O)OC)cc1CC(=O)N[C@H](C(=O)N[C@@H](CC(=O)O)C(=O)CSCc1c(F)cccc1Cl)C(C)C
[5]
  IC50: 0.7 µM
[1]
  IC50: 1700 nM
[2]
  IC50: 53 nM
[3]
  IC50: 6.5 µM
[4]
  IC50: 9.3 µM

## COc1ccc(OC)c(CC(=O)N[C@H](C(=O)N[C@@H](CC(=O)O)C(=O)CSCC2CCCCC2)C(C)C)c1
[5]
  IC50: 19 µM
[1]
  IC50: > 10000 nM
[2]
  IC50: 63 nM
[3]
  IC50: 1.8 µM
[4]
  IC50: 2 µM

## CC(C)[C@H](NC(=O)Cc1ccccc1)C(=O)N[C@@H](CC(=O)O)C(=O)CSCc1ccccc1
[1]
  IC50: 8400 nM
[2]
  IC50: 750 nM
[3]
  IC50: 22 µM
[4]
  IC50: 22.5 µM

## COc1ccc(OC)c(CC(=O)N[C@H](C(=O)N[C@@H](CC(=O)O)C(=O)CSCC(C)C)C(C)C)c1
[5]
  IC50: 32 µM
[1]
  IC50: 1800 nM
[2]
  IC50: 130 nM
[3]
  IC50: 2.6 µM
[4]
  IC50: 7.8 µM

## CC(=O)N[C@@H](CC(=O)O)C(=O)N[C@@H](CCC(=O)O)C(=O)N[C@H](C(=O)N[C@H](C=O)CC(=O)O)C(C)C
[5]
  IC50: > 100 µM
[1]
  IC50: 87 nM
[3]
  IC50: 0.19 µM
[4]
  IC50: 0.13 µM

## CCOc1ccc(/C=C/C(=O)OC)cc1CC(=O)N[C@H](C(=O)N[C@@H](CC(=O)O)C(=O)CSCc1c(F)cccc1Cl)C(C)C
[5]
  IC50: 0.6 µM
[1]
  IC50: 24 nM
[3]
  IC50: 1.8 µM
[4]
  IC50: 3.85 µM

## COc1ccc(Br)cc1CC(=O)N[C@H](C(=O)N[C@@H](CC(=O)O)C(=O)CSCc1ccccc1)C(C)C
[5]
  IC50: 9 µM
[1]
  IC50: 3100 nM
[2]
  IC50: 60 nM
[3]
  IC50: 3.1 µM
[4]
  IC50: 2.3 µM
